# Measurements as given in US20240217957A1, “HETEROCYCLIC COMPOUND AND USE THEREOF” (TAKEDA PHARMACEUTICAL COMPANY LIMITED, priority 2022, published 2024).
# Tests used:
# human OX2 receptor = target: T1, human OX2 receptor (Homo sapiens, UniProt O43614); experiment: Measurement of orexin type 2 receptor agonist activity (calcium fluorescence, Fluo-4 AM, FDSS); assay type: cell-based; conditions: compound at 3 μM; CHO cells forcibly expressing human OX2 receptor; DMSO = 0%, 10 nM orexin A (human) = 100%
# T1 construct: expressed in transfected cells
# T1 sequence (O43614 1-444): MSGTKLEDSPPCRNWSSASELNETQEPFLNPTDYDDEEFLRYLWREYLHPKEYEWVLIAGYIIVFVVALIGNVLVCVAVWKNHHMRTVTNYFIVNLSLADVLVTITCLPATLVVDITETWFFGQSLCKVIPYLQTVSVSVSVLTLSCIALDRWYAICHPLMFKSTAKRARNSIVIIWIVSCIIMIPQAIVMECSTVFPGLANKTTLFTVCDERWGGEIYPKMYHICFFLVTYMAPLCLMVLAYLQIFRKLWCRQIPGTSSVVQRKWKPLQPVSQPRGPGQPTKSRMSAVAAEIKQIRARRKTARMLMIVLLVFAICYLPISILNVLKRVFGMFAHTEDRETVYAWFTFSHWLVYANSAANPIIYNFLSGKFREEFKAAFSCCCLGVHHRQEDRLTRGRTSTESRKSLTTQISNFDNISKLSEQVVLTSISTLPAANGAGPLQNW
# Procedure, shortened: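 CHO-K1 cells stably expressing human OX2 receptor (residues 1-444) loaded with Fluo-4 AM in HBSS/20 mM HEPES/0.1% BSA with probenecid, 30 min at 37° C. then 30 min at room temperature. After compound addition, calcium fluorescence read for 1 min 40 s; activity (%) scaled to DMSO (0%) and 10 nM orexin A (100%).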
# cynomolgus monkeys = experiment: Evaluation of wake-promoting effects in cynomolgus monkeys (EEG, EMG, locomotor activity); assay type: in vivo, cynomolgus monkey; conditions: 3 mg/kg p.o. at zeitgeber time 12, male cynomolgus monkeys, time spent in wakefulness for 4 hours after administration
# Description: The wake-promoting effects were evaluated by measuring the electroencephalogram (EEG), electromyogram (EMG) and locomotor activity in cynomolgus monkeys. Under isoflurane anesthesia (0.5-5%, Pfizer Japan Inc., Tokyo, Japan), male cynomolgus monkeys (2-3 years old, Hamri Co., Ltd., Ibaraki, Japan) were surgically implanted with radio-telemetry transmitters (L03-F3, Data Sciences International Inc., MN, USA). The two EEG electrodes were stereotaxically positioned at the parietal area and secured to the cranium with stainless-steel screws in contact with the dura. Bilateral EMG electrodes were implanted into the back cervical muscles.
# After at least a 1-month recovery period in home cages, the monkeys were habituated to the recording chamber (an acrylic cage 60 W×55 D×75 H (cm)) located in a soundproof and electrically shielded room by the time animals sleep sufficiently in the experimental room. Cortical EEG, EMG and locomotor activity were recorded using the telemetry system (PhysioTel Digital telemetry platform, Data Sciences International Inc.). The signals were semi-automatically scored in 20-second epochs by a sleep scoring system (SleepSign, Kissei Comtec Co., Ltd., Nagano, Japan).
# Test compound (3 mg/kg) suspended in 0.5% methylcellulose aqueous solution or vehicle (i.e., 0.5% methylcellulose aqueous solution) was administered orally (p.o.) to monkeys at zeitgeber time 12 in a volume of 5 mL/kg body weight with a pretest-posttest design (n=2), and then EEG, EMG and locomotor activity were recorded. The time spent in wakefulness for 4 hours after administration (% of vehicle treatment) was calculated by using SleepSign.
SMILES,"OX2R agonist activity (3 μM, %) (human OX2 receptor)","Wakefulness time (% of vehicle treatment) (Mean, n = 2) (cynomolgus monkeys)"
"Cc1cnc([C@@H]2CC(N3C[C@@H](NS(C)(=O)=O)C(F)(F)C3)=NO2)c(-c2c(F)cc(F)cc2F)c1 [Example 11, N-[(3R)-4,4-difluoro-1-{(5S)-5-[5-methyl-3-(2,4,6-trifluorophenyl)pyridin-2-yl]-4,5-dihydro-1,2-oxazol-3-yl}pyrrolidin-3-yl]methanesulfonamide]",96%,638.80 % of vehicle treatment
"CS(=O)(=O)N[C@@H]1CN(C2=NO[C@](CF)(c3ncc(F)cc3-c3c(F)cccc3F)C2)CC1(F)F [Example 109, N-[(3R)-1-{(5S)-5-[3-(2,6-difluorophenyl)-5-fluoropyridin-2-yl]-5-(fluoromethyl)-4,5-dihydro-1,2-oxazol-3-yl}-4,4-difluoropyrrolidin-3-yl]methanesulfonamide]",101%,558.37 % of vehicle treatment
"O=S(=O)(CF)N[C@@H]1CN(C2=NO[C@](CF)(c3ncc(F)cc3-c3c(F)cccc3F)C2)CC1(F)F [Example 149, N-[(3R)-1-{(5S)-5-[3-(2,6-difluorophenyl)-5-fluoropyridin-2-yl]-5-(fluoromethyl)-4,5-dihydro-1,2-oxazol-3-yl}-4,4-difluoropyrrolidin-3-yl]-1-fluoromethanesulfonamide]",96%,282.21 % of vehicle treatment
"C[C@@]1(c2ncc(F)cc2-c2c(F)cccc2F)CC(N2C[C@@H](NS(C)(=O)=O)C(F)(F)C2)=NO1 [Example 165, N-[(3R)-1-{(5S)-5-[3-(2,6-difluorophenyl)-5-fluoropyridin-2-yl]-5-methyl-4,5-dihydro-1,2-oxazol-3-yl}-4,4-difluoropyrrolidin-3-yl]methanesulfonamide]",100%,716.25 % of vehicle treatment
"Cc1cc(F)c(C2CC(N3C[C@@H](NS(C)(=O)=O)C(F)(F)C3)=NO2)c(-c2ncccc2F)c1 (stereo partly drawn) [Example 176, N-[(3R)-4,4-difluoro-1-{5-[2-fluoro-6-(3-fluoropyridin-2-yl)-4-methylphenyl]-4,5-dihydro-1,2-oxazol-3-yl}pyrrolidin-3-yl]methanesulfonamide]",109%,–
"Cc1cc(F)c(C2CC(N3C[C@@H](NS(=O)(=O)CF)C(F)(F)C3)=NO2)c(-c2ncc(F)cc2F)c1 (stereo partly drawn) [Example 177, N-[(3R)-1-{5-[2-(3,5-difluoropyridin-2-yl)-6-fluoro-4-methylphenyl]-4,5-dihydro-1,2-oxazol-3-yl}-4,4-difluoropyrrolidin-3-yl]-1-fluoromethanesulfonamide]",106%,–
"Cc1cc(F)c(C2CC(N3C[C@H](F)[C@H](NS(C)(=O)=O)C3)=NO2)c(-c2ncc(F)cc2F)c1 (stereo partly drawn) [Example 178, N-[(3R,4S)-1-{5-[2-(3,5-difluoropyridin-2-yl)-6-fluoro-4-methylphenyl]-4,5-dihydro-1,2-oxazol-3-yl}-4-fluoropyrrolidin-3-yl]methanesulfonamide]",111%,–
